According to patent publication US10336762B2 (priority 2017, dated 2019):

Tests used:
TNFα = assay: cells; type: cell-based, human; conditions: Homo sapiens, Monocyte, LPS-stimulated human monocytes, TNFα by TR-FRET; read-out: EC50 TNF
IRAK4 enzyme = IRAK4 enzyme (Homo sapiens (Human), UniProt Q9NWZ3); assay: biochemical; type: biochemical; conditions: IRAK4 enzyme, TR-FRET, 500 μM ATP
Sequence of IRAK4 enzyme (Q9NWZ3 whole entry): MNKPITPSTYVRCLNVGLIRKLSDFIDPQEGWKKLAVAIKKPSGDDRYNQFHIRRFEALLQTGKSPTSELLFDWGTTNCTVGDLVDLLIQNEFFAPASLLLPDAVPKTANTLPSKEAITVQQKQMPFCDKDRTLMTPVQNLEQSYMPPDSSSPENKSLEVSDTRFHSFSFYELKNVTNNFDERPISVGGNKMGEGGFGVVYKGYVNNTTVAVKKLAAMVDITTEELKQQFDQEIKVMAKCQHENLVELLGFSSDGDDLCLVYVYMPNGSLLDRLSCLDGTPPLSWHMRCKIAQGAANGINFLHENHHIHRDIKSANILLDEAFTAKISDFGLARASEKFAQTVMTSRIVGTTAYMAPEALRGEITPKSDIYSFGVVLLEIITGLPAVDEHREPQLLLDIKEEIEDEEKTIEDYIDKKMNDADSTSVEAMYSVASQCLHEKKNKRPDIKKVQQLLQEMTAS

SMILES: COC[C@@H]1CCN(c2ccc(Nc3cc(-c4ccc5cc(C#N)cnn45)ncc3C(=O)NC[C@@H](F)C(C)(C)O)cn2)C1 [Example 885, 6-(3-cyanopyrrolo[1,2-b]pyridazin-7-yl)-N-((R)-2-fluoro-3-hydroxy-3-methylbutyl)-4-((6-((R)-3-(methoxymethyl)pyrrolidin-1-yl)pyridin-3-yl)amino) nicotinamide]
- EC50 (TNFα): 0.07 µM
- IC50 (IRAK4 enzyme): 0.001 µM

SMILES: CC(=O)NC[C@H]1CN(c2ccc(Nc3cc(-c4ccc5cc(C#N)cnn45)ncc3C(=O)NC[C@@H](F)C(C)(C)O)cn2)CCO1 [Example 886, 4-((6-((S)-2-(acetamido-methyl)morpholino)pyridin-3-yl)amino)-6-(3-cyano-pyrrolo[1,2-b]pyridazin-7-yl)-N-((R)-2-fluoro-3-hydroxy-3-methylbutyl) nicotinamide]
- EC50 (TNFα): 0.029 µM
- IC50 (IRAK4 enzyme): 0.002 µM

SMILES: COC(=O)NC[C@H]1CN(c2ccc(Nc3cc(-c4ccc5cc(C#N)cnn45)ncc3C(=O)NC[C@@H](F)C(C)(C)O)cn2)CCO1 [Example 887, methyl (((S)-4-(5-((2-(3-cyanopyrrolo[1,2-b]pyridazin-7-yl)-5-(((R)-2-fluoro-3-hydroxy-3-methylbutyl)carbamoyl)pyridin-4-yl)amino)pyridin-2-yl)morpholin-2-yl)methyl)carbamate]
- EC50 (TNFα): 0.088 µM
- IC50 (IRAK4 enzyme): 0.001 µM

SMILES: COC(=O)Nc1ccc(Nc2cc(-c3ccc4cc(C#N)cnn34)ncc2C(=O)NC[C@@H](F)C(C)(C)O)cn1 [Example 888, methyl (R)-(5-((2-(3-cyanopyrrolo[1,2-b]pyridazin-7-yl)-5-((2-fluoro-3-hydroxy-3-methylbutyl)carbamoyl)pyridin-4-yl)amino)pyridin-2-yl)carbamate]
- EC50 (TNFα): 0.021 µM
- IC50 (IRAK4 enzyme): < 0.001 µM

SMILES: CC(=O)N1CC[C@H]1CNc1cc(-c2ccc3cc(C#N)cnn23)ncc1C(=O)NC[C@@H](F)C(C)(C)O [Example 889, 4-((((S)-1-acetylazetidin-2-yl)methyl)amino)-6-(3-cyanopyrrolo[1,2-b]pyridazin-7-yl)-N-((R)-2-fluoro-3-hydroxy-3-methylbutyl)nicotinamide]
- EC50 (TNFα): 0.436 µM
- IC50 (IRAK4 enzyme): 0.009 µM

SMILES: COC(=O)N1CC[C@H]1CNc1cc(-c2ccc3cc(C#N)cnn23)ncc1C(=O)NC[C@@H](F)C(C)(C)O [Example 890, (S)-methyl 2-(((2-(3-cyanopyrrolo[1,2-b]pyridazin-7-yl)-5-(((R)-2-fluoro-3-hydroxy-3-methylbutyl)carbamoyl)pyridin-4-yl)amino)methyl)azetidine-1-carboxylate]
- EC50 (TNFα): 0.357 µM
- IC50 (IRAK4 enzyme): 0.014 µM

SMILES: CC(C)(O)[C@H](F)CNC(=O)c1cnc(-c2ccc3cc(C#N)cnn23)cc1NC[C@@H]1CCN1CC(F)(F)F [Example 891, 6-(3-cyanopyrrolo[1,2-b]pyridazin-7-yl)-N-((R)-2-fluoro-3-hydroxy-3-methylbutyl)-4-((((S)-1-(2,2,2-trifluoroethyl)azetidin-2-yl)methyl)amino)nicotinamide]
- EC50 (TNFα): 0.249 µM
- IC50 (IRAK4 enzyme): 0.004 µM

SMILES: CC(=O)N1CC[C@@H]1CNc1cc(-c2ccc3cc(C#N)cnn23)ncc1C(=O)NC[C@@H](F)C(C)(C)O [Example 892, 4-((((R)-1-acetylazetidin-2-yl)methyl)amino)-6-(3-cyanopyrrolo[1,2-b]pyridazin-7-yl)-N-((R)-2-fluoro-3-hydroxy-3-methylbutyl)nicotinamide]
- EC50 (TNFα): 0.808 µM
- IC50 (IRAK4 enzyme): 0.003 µM

SMILES: COC(=O)N1CC[C@@H]1CNc1cc(-c2ccc3cc(C#N)cnn23)ncc1C(=O)NC[C@@H](F)C(C)(C)O [Example 893, (R)-methyl 2-(((2-(3-cyano-pyrrolo[1,2-b]pyridazin-7-yl)-5-(((R)-2-fluoro-3-hydroxy-3-methylbutyl)carbamoyl)pyridin-4-yl)amino)methyl)azetidine-1-carboxylate]
- EC50 (TNFα): 0.217 µM
- IC50 (IRAK4 enzyme): 0.002 µM

SMILES: CC(C)(O)[C@H](F)CNC(=O)c1cnc(-c2ccc3cc(C#N)cnn23)cc1NC[C@H]1CCN1CC(F)(F)F [Example 894, 6-(3-cyanopyrrolo[1,2-b]pyridazin-7-yl)-N-((R)-2-fluoro-3-hydroxy-3-methylbutyl)-4-((((R)-1-(2,2,2-trifluoroethyl)azetidin-2-yl)methyl)amino)nicotinamide]
- EC50 (TNFα): 0.245 µM
- IC50 (IRAK4 enzyme): 0.007 µM

SMILES: CC(C)(O)[C@H](F)CNC(=O)c1cnc(-c2ccc3cc(C#N)cnn23)cc1NC1CC2(CNC2)C1 [Example 895, (R)-4-(2-azaspiro[3.3]heptan-6-ylamino)-6-(3-cyanopyrrolo[1,2-b]pyridazin-7-yl)-N-(2-fluoro-3-hydroxy-3-methyl-butyl)nicotinamide]
- EC50 (TNFα): 1 µM
- IC50 (IRAK4 enzyme): 0.002 µM

SMILES: N#CCNC(=O)c1cnc(-c2ccc3cc(C#N)cnn23)cc1Nc1cnn([C@H]2CCNC2)c1 [Example 896, (S)-N-(cyanomethyl)-6-(3-cyanopyrrolo[1,2-b]pyridazin-7-yl)-4-((1-(pyrrolidin-3-yl)-1H-pyrazol-4-yl)amino) nicotinamide]
- EC50 (TNFα): 0.048 µM
- IC50 (IRAK4 enzyme): < 0.001 µM

SMILES: COC(=O)N1CC2(CC(Nc3cc(-c4ccc5cc(C#N)cnn45)ncc3C(=O)NC[C@@H](F)C(C)(C)O)C2)C1 [Example 897, (R)-methyl 6-((2-(3-cyano-pyrrolo[1,2-b]pyridazin-7-yl)-5-((2-fluoro-3-hydroxy-3-methylbutyl)carbamoyl)pyridin-4-yl)amino)-2-azaspiro[3.3]heptane-2-carboxylate]
- EC50 (TNFα): 0.421 µM
- IC50 (IRAK4 enzyme): 0.002 µM

SMILES: CC(C)(O)[C@H](F)CNC(=O)c1cnc(-c2ccc3cc(C#N)cnn23)cc1NC1CC2(C1)CN(CC(F)(F)F)C2 [Example 898, (R)-6-(3-cyanopyrrolo[1,2-b]pyridazin-7-yl)-N-(2-fluoro-3-hydroxy-3-methylbutyl)-4-((2-(2,2,2-trifluoroethyl)-2-aza-spiro[3.3]heptan-6-yl)amino)nicotinamide]
- EC50 (TNFα): 0.118 µM
- IC50 (IRAK4 enzyme): < 0.001 µM

SMILES: CC(C)(O)[C@H](F)CNC(=O)c1cnc(-c2ccc3cc(C#N)cnn23)cc1NC[C@H]1CCNC1 [Example 899, 6-(3-cyanopyrrolo[1,2-b]pyridazin-7-yl)-N-((R)-2-fluoro-3-hydroxy-3-methylbutyl)-4-((((S)-pyrrolidin-3-yl)methyl)amino)nicotinamide]
- EC50 (TNFα): > 10 µM
- IC50 (IRAK4 enzyme): 0.005 µM

SMILES: COC(=O)N1CC[C@H](CNc2cc(-c3ccc4cc(C#N)cnn34)ncc2C(=O)NC[C@@H](F)C(C)(C)O)C1 [Example 900, (R)-methyl 3-(((2-(3-cyanopyrrolo[1,2-b]pyridazin-7-yl)-5-(((R)-2-fluoro-3-hydroxy-3-methylbutyl)carbamoyl)pyridin-4-yl)amino)methyl) pyrrolidine-1-carboxylate]
- EC50 (TNFα): 0.134 µM
- IC50 (IRAK4 enzyme): 0.002 µM

SMILES: CC(C)(O)[C@H](F)CNC(=O)c1cnc(-c2ccc3cc(C#N)cnn23)cc1NC[C@H]1CCN(CC(F)(F)F)C1 [Example 901, 6-(3-cyanopyrrolo[1,2-b]pyridazin-7-yl)-N-((R)-2-fluoro-3-hydroxy-3-methylbutyl)-4-((((R)-1-(2,2,2-trifluoroethyl)pyrrolidin-3-yl)methyl)amino)nicotinamide]
- EC50 (TNFα): 0.126 µM
- IC50 (IRAK4 enzyme): 0.003 µM

SMILES: CC(C)(O)[C@H](F)CNC(=O)c1cnc(-c2ccc3cc(C#N)cnn23)cc1NC1CC2(CCNC2)C1 (stereo partly drawn) [Example 902, (R)-4-(6-azaspiro[3.4]octan-2-ylamino)-6-(3-cyanopyrrolo[1,2-b]pyridazin-7-yl)-N-(2-fluoro-3-hydroxy-3-methyl-butyl)nicotinamide]
- EC50 (TNFα): 1.23 µM
- IC50 (IRAK4 enzyme): 0.001 µM

SMILES: COC(=O)N1CCC2(CC(Nc3cc(-c4ccc5cc(C#N)cnn45)ncc3C(=O)NC[C@@H](F)C(C)(C)O)C2)C1 (stereo partly drawn) [Example 903, (R)-methyl 2-((2-(3-cyano-pyrrolo[1,2-b]pyridazin-7-yl)-5-((2-fluoro-3-hydroxy-3-methylbutyl)carbamoyl)pyridin-4-yl)amino)-6-azaspiro[3.4]octane-6-carboxylate]
- EC50 (TNFα): 0.079 µM
- IC50 (IRAK4 enzyme): 0.001 µM

SMILES: CC(C)(O)[C@H](F)CNC(=O)c1cnc(-c2ccc3cc(C#N)cnn23)cc1NC1CC2(CCN(CC(F)(F)F)C2)C1 (stereo partly drawn) [Example 904, (R)-6-(3-cyanopyrrolo[1,2-b]pyridazin-7-yl)-N-(2-fluoro-3-hydroxy-3-methylbutyl)-4-((6-(2,2,2-trifluoroethyl)-6-aza-spiro[3.4]octan-2-yl)amino)nicotinamide]
- EC50 (TNFα): 0.117 µM
- IC50 (IRAK4 enzyme): 0.001 µM

SMILES: CC(C)(O)[C@H](F)CNC(=O)c1cnc(-c2ccc3cc(C#N)cnn23)cc1NCC1CNC1 [Example 905, (R)-4-((azetidin-3-yl-methyl)amino)-6-(3-cyanopyrrolo[1,2-b]pyridazin-7-yl)-N-(2-fluoro-3-hydroxy-3-methylbutyl)nicotinamide]
- EC50 (TNFα): > 10 µM
- IC50 (IRAK4 enzyme): 0.015 µM

SMILES: COC(=O)N1CC(CNc2cc(-c3ccc4cc(C#N)cnn34)ncc2C(=O)NC[C@@H](F)C(C)(C)O)C1 [Example 906, (R)-methyl 3-(((2-(3-cyanopyrrolo[1,2-b]pyridazin-7-yl)-5-((2-fluoro-3-hydroxy-3-methylbutyl)carbamoyl)pyridin-4-yl)amino)methyl) azetidine-1-carboxylate]
- EC50 (TNFα): 0.186 µM
- IC50 (IRAK4 enzyme): 0.01 µM

SMILES: CC(C)(O)[C@H](F)CNC(=O)c1cnc(-c2ccc3cc(C#N)cnn23)cc1NCC1CN(CC(F)(F)F)C1 [Example 907, (R)-6-(3-cyanopyrrolo[1,2-b]pyridazin-7-yl)-N-(2-fluoro-3-hydroxy-3-methylbutyl)-4-(((1-(2,2,2-trifluoroethyl)azetidin-3-yl)methyl)amino) nicotinamide]
- EC50 (TNFα): 0.091 µM
- IC50 (IRAK4 enzyme): 0.01 µM

SMILES: CC(C)(O)[C@H](F)CNC(=O)c1cnc(-c2ccc3cc(C#N)cnn23)cc1NC1CC2(CCN2)C1 (stereo partly drawn) [Example 908, 4-(((4S,6r)-1-azaspiro[3.3]heptan-6-yl)amino)-6-(3-cyanopyrrolo[1,2-b]pyridazin-7-yl)-N-((R)-2-fluoro-3-hydroxy-3-methylbutyl)nicotinamide]
- EC50 (TNFα): 0.611 µM
- IC50 (IRAK4 enzyme): 0.006 µM
